Drawing on article PMC9518286, “Design, synthesis, biological evaluation and molecular docking study of 2,4-diarylimidazoles and 2,4-bis(benzyloxy)-5-arylpyrimidines as novel HSP90 N-terminal inhibitors” (Journal of Enzyme Inhibition and Medicinal Chemistry, 2022), this text covers IC50 for five compounds.

In assay [1] the target is T1, HSP90α (Homo sapiens, UniProt P07900).
T1 construct: gene HSP90AA1; N-terminal domain
The experiment in a line: biochemical. Details: fluorescence polarisation competition with FITC-labelled geldanamycin on HSP90α N-terminal domain (BPS kit 50293). The note with it: read-out: FP IC50. How it is done: The binding affinity for HSP90α was evaluated using a commercially available Hsp90α N-terminal domain assay kit (Catalogue: #50293, BPS Bioscience, CA, USA). According to the manufacturer’s instructions, 5x HSP90 assay buffer (5 μL), 40 mM dithiothreitol (5 μL), 2 mg/mL BSA (5 μL), and H2O (40 μL) were sequentially added to each well. After the addition of diluted FITC-labelled geldanamycin solution (100 nM, 5 μL), compounds at different concentrations (10 μM, 1.0 μM, 0.1 μM, 0.01 μM) were added. The reaction was initiated by the addition of 20 μL of Hsp90α (17 ng/μL). After 2 h of incubation with slow shaking at room temperature, the fluorescent polarisation was measured using Synergy H1 (BioTek Instruments, Inc.). The excitation and emission wavelengths were 485 nm and 530 nm, respectively. IC50 values were calculated based on the signal changes in the FP competition assay. The experiments were performed in triplicate. To further verify the binding of the synthesised compounds to the HSP90 N-terminus, the binding affinity of five typical compounds (16j, 16l, 16m, 22k, and 22l) was evaluated using an FP assay. The addition of compounds with HSP90 inhibitory capacity into the assay would compete with the fluorescence probe for binding into HSP90, resulting in a decrease in FP in comparison with the probe alone.

For assay [2], the target named is T1, HSP90α. The experiment in a line: fluorescence polarisation competition with FITC-geldanamycin (BPS kit #[…]). The class given is binding.

As usually defined, the IC50 is the midpoint of a concentration-inhibition curve. In the case of `Clc1ccc(-c2cn(Cc3ccccc3)c(-c3ccc(Cl)cc3)n2)cc1` [16l, 1-Benzyl-2,4-bis(4-chlorophenyl)-1H-imidazole], on HSP90α [1], the IC50 came out at 570 ± 60 nM. For `Oc1ccc(-c2cnc(OCc3ccccc3)nc2OCc2ccccc2)cc1` [22k, 4–(2,4-Bis(benzyloxy)pyrimidin-5-yl)phenol], at HSP90α [2], the half-inhibitory concentration (IC50) came out at 210 ± 30 nM.

Regarding `Clc1ccc(-c2nc(-c3cccc(Cl)c3)cn2Cc2ccccc2)cc1` [16m, 1-Benzyl-4–(3-chlorophenyl)-2–(4-chlorophenyl)-1H-imidazole], on HSP90α [1], the IC50 turned out to be 620 ± 110 nM. Turning to `Cc1ccc(-c2cn(Cc3ccccc3)c(-c3ccc(Cl)cc3)n2)cc1` [16j, 1-Benzyl-2–(4-chlorophenyl)-4-(p-tolyl)-1H-imidazole], the IC50 at HSP90α [1] was determined as 610 ± 30 nM. The same measure, in the same setting: with `Oc1cccc(-c2cnc(OCc3ccccc3)nc2OCc2ccccc2)c1` [22l, 3–(2,4-Bis(benzyloxy)pyrimidin-5-yl)phenol] the figure was 580 ± 110 nM.
